From the NIST ThermoML archive (doi:10.1016/j.tca.2010.11.013)

Test: wn = mass fraction of the nth substance listed
Conditions: 101 kPa, Liquid; for speed of sound: Sing-around technique in a fixed-path interferometer; for mass density: Vibrating tube method

OC[C@H]1O[C@@](CO)(O[C@H]2O[C@H](CO)[C@@H](O)[C@H](O)[C@H]2O)[C@@H](O)[C@@H]1O [D-sucrose] + O
Conditions	mass density, 288.15 K [kg/m3]	mass density, 293.15 K [kg/m3]	mass density, 298.15 K [kg/m3]	mass density, 303.15 K [kg/m3]	mass density, 308.15 K [kg/m3]	speed of sound, 288.15 K [m/s]	speed of sound, 293.15 K [m/s]	speed of sound, 298.15 K [m/s]	speed of sound, 303.15 K [m/s]	speed of sound, 308.15 K [m/s]
w1 = 0.0214	1007.5	1006.55	1005.34	1003.89	1002.24	1473.1	1489	1503	1515.1	1525.3
w1 = 0.0419	1015.59	1014.59	1013.33	1011.85	1010.16	1479.3	1495.1	1508.8	1520.5	1530.4
w1 = 0.0614	1023.45	1022.4	1021.1	1019.58	1017.85	1486.3	1501.8	1515.3	1526.8	1536.7

O=C(CO)[C@@H](O)[C@H](O)[C@H](O)CO [D-fructose] + O
Conditions	mass density, 288.15 K [kg/m3]	mass density, 293.15 K [kg/m3]	mass density, 298.15 K [kg/m3]	mass density, 303.15 K [kg/m3]	mass density, 308.15 K [kg/m3]	speed of sound, 288.15 K [m/s]	speed of sound, 293.15 K [m/s]	speed of sound, 298.15 K [m/s]	speed of sound, 303.15 K [m/s]	speed of sound, 308.15 K [m/s]
w1 = 0.0209	–	–	1005.17	1003.7	1002.02	1476.2	1492	–	1517.3	1527
w1 = 0.0389	1014.62	1013.56	1012.26	–	1009	1483.1	1498.5	1512	–	1533.2
w1 = 0.0611	1023.64	1022.5	1021.11	1019.51	1017.71	–	1507.8	1520.8	1531.8	–
